{
  "source": "paper PMC11850406",
  "about": "“Large-scale screening of HIV-1 T-cell epitopes restricted by 12 prevalent HLA-A allotypes in Northeast Asia and universal detection of HIV-1-specific CD8^+ T cells” (Frontiers in Microbiology, 2025)",
  "key": {"HLA-A1101": {"molecular_target": "T1, HLA-A1101 (Homo sapiens, UniProt P04439, A114D/D185E/E176A/F33Y/L180Q/S129P/T187R)", "T1 construct": "expressed in transfected cells; host or cells: HMy2.CIR", "assay": "cell-based", "format": "binding"}, "HLA-A3001": {"molecular_target": "T2, HLA-A3001 (Homo sapiens, UniProt P04439, D140H/D185E/E176W/F33S/G80R/H175R/K168Q/R138E/R41S)", "T2 construct": "expressed in transfected cells; host or cells: HMy2.CIR", "assay": "cell-based", "format": "binding", "conditions": "for inhibition at 5 µM / inhibition at 15 µM: 24 h; for inhibition at 5 µM: read-out: 5-μM inhibition (%); for inhibition at 15 µM: read-out: 15-μM inhibition (%)"}, "HLA-A1102": {"molecular_target": "HLA-A1102 (Homo sapiens, UniProt P04439, A114D/D185E/E176A/E43K/F33Y/L180Q/S129P/T187R)", "assay": "cell-based", "format": "binding", "conditions": "A1102, 24 h, 4°C, flow cytometry"}, "HLA-A0301": {"molecular_target": "T3, HLA-A0301 (Homo sapiens, UniProt P04439)", "T3 construct": "expressed in transfected cells; host or cells: HMy2.CIR", "T3 sequence (P61769 21-119)": "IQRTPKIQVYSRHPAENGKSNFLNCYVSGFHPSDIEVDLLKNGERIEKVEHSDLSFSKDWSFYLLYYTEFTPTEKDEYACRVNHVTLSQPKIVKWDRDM", "T3 sequence (P04439 25-365)": "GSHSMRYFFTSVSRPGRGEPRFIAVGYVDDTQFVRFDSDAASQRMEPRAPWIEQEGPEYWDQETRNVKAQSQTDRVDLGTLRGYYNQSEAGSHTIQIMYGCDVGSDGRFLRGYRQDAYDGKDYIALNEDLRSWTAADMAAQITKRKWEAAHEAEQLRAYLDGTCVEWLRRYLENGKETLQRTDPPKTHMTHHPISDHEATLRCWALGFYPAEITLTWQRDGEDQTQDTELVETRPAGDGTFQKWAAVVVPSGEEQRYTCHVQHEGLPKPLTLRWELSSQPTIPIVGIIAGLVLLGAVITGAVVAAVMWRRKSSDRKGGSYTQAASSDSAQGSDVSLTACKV", "assay": "cell-based", "format": "binding", "conditions": "for inhibition at 5 µM: read-out: 5-μM inhibition (%); for inhibition at 15 µM: read-out: 15-μM inhibition (%)"}, "HLA-A0101": {"molecular_target": "T4, HLA-A0101 (Homo sapiens, UniProt P04439, A114D/A174V/A182V/D101N/D185E/E176A/E190D/L180R/Q94H/R68K/S129P/T187R/V100A/V91M/W191G)", "T4 construct": "expressed in transfected cells; host or cells: HMy2.CIR", "assay": "Peptide competitive binding assay, HMy2.CIR cells expressing A0101", "conditions": "for inhibition at 5 µM / inhibition at 15 µM: 24 h; for inhibition at 5 µM: read-out: 5-μM inhibition (%); for inhibition at 15 µM: read-out: 15-μM inhibition (%)"}, "HLA-A0203": {"molecular_target": "T5, HLA-A0203 (Homo sapiens, UniProt P04439, A173T/D140Y/D185E/D98H/E277Q/G131W/G231S/I119V/I121R/I166T/I218V/L180W/L300P/L318F/N151K/N90K/P208A/P217A/Q86G/Q94H/R138H/R169H/T345S)", "T5 construct": "expressed in transfected cells; host or cells: HMy2.CIR", "assay": "cell-based", "format": "binding"}, "HLA-A0201": {"molecular_target": "T6, HLA-A0201 (Homo sapiens, UniProt P04439, D140Y/D185E/D98H/E176V/E277Q/G131W/G231S/I119V/I121R/I166T/I218V/L300P/L318F/N151K/N90K/P208A/P217A/Q86G/Q94H/R138H/R169H/T345S)", "T6 construct": "expressed in transfected cells; host or cells: HMy2.CIR", "assay": "cell-based", "format": "binding", "conditions": "A0201, 24 h, 4°C, flow cytometry"}, "HLA-A0206": {"molecular_target": "T7, HLA-A0206 (Homo sapiens, UniProt P04439, D140Y/D185E/D98H/E176V/E277Q/F33Y/G131W/G231S/I119V/I121R/I166T/I218V/L300P/L318F/N151K/N90K/P208A/P217A/Q86G/Q94H/R138H/R169H/T345S)", "T7 construct": "expressed in transfected cells; host or cells: HMy2.CIR", "assay": "Peptide competitive binding assay, HMy2.CIR cells expressing A0206", "conditions": "for inhibition at 5 µM: peptide 5 μM vs FITC-labeled reference peptide 300 nM; for inhibition at 5 µM / inhibition at 15 µM: 24 h, 4°C, flow cytometry; for inhibition at 15 µM: peptide 15 μM vs FITC-labeled reference peptide 300 nM"}, "[1]": {"conditions": "peptide 5 μM vs FITC-labeled reference peptide 300 nM, read-out: 5-μM inhibition (%)"}, "[2]": {"conditions": "peptide 15 μM vs FITC-labeled reference peptide 300 nM, read-out: 15-μM inhibition (%)"}, "[3]": {"conditions": "A0301, peptide 5 μM vs FITC-labeled reference peptide 300 nM, 24 h, 4°C, flow cytometry"}, "[4]": {"conditions": "A0301, peptide 15 μM vs FITC-labeled reference peptide 300 nM, 24 h, 4°C, flow cytometry"}, "[5]": {"conditions": "A0101, peptide 5 μM vs FITC-labeled reference peptide 300 nM, 4°C, flow cytometry"}, "[6]": {"conditions": "A0101, peptide 15 μM vs FITC-labeled reference peptide 300 nM, 4°C, flow cytometry"}},
  "note": "Like-named read-outs stand apart in the source and are kept apart here. Where no end group is shown, it is not given here.",
  "data": [
    {"compound": "CC[C@H](C)[C@H](NC(=O)[C@H](C)N)C(=O)N[C@@H](Cc1ccccc1)C(=O)N[C@@H](CCC(N)=O)C(=O)N[C@@H](CO)C(=O)N[C@@H](CO)C(=O)N[C@@H](CCSC)C(=O)N[C@H](C(=O)N[C@@H](CCCCN)C(=O)O)[C@@H](C)O", "note": "[Peptide P40]", "values": [
      {"measurement": "IC50", "setting": "HLA-A1101", "value": "< 5", "unit": "µM"},
      {"measurement": "inhibition at 5 µM", "setting": "HLA-A1101; A1101, peptide 5 μM vs FITC-labeled reference peptide 300 nM, 24 h, 4°C, flow cytometry, read-out: 5-μM inhibition (%)", "value": 67.9, "unit": "%"},
      {"measurement": "inhibition at 15 µM", "setting": "HLA-A1101; A1101, peptide 15 μM vs FITC-labeled reference peptide 300 nM, 24 h, 4°C, flow cytometry, read-out: 15-μM inhibition (%)", "value": 89.5, "unit": "%"},
      {"measurement": "IC50", "setting": "HLA-A3001", "value": "< 5", "unit": "µM"},
      {"measurement": "inhibition at 5 µM", "setting": "HLA-A3001", "value": 60.4, "unit": "%"},
      {"measurement": "inhibition at 15 µM", "setting": "HLA-A3001", "value": 67.7, "unit": "%"},
      {"measurement": "inhibition at 5 µM", "setting": "HLA-A1102; [1]", "value": 2.89, "unit": "%"},
      {"measurement": "inhibition at 15 µM", "setting": "HLA-A1102; [2]", "value": 16.1, "unit": "%"},
      {"measurement": "IC50", "setting": "HLA-A0301", "value": "5 to 15", "unit": "µM"},
      {"measurement": "inhibition at 5 µM", "setting": "HLA-A0301; 24 h", "value": 22.4, "unit": "%"},
      {"measurement": "inhibition at 15 µM", "setting": "HLA-A0301; 24 h", "value": 50.6, "unit": "%"}
    ]},
    {"compound": "EADGKVSQNY [Peptide P67]", "values": [
      {"measurement": "IC50", "setting": "HLA-A0101", "value": "5 to 15", "unit": "µM"},
      {"measurement": "inhibition at 5 µM", "setting": "HLA-A0101", "value": 21.4, "unit": "%"},
      {"measurement": "inhibition at 15 µM", "setting": "HLA-A0101", "value": 62, "unit": "%"}
    ]},
    {"compound": "KLAGRWPVK [Peptide P95]", "values": [
      {"measurement": "IC50", "setting": "HLA-A3001", "value": "< 5", "unit": "µM"},
      {"measurement": "inhibition at 5 µM", "setting": "HLA-A3001; A3001, peptide 5 μM vs FITC-labeled reference peptide 300 nM, 4°C, flow cytometry", "value": 83.7, "unit": "%"},
      {"measurement": "inhibition at 15 µM", "setting": "HLA-A3001; A3001, peptide 15 μM vs FITC-labeled reference peptide 300 nM, 4°C, flow cytometry", "value": 95.9, "unit": "%"},
      {"measurement": "IC50", "setting": "HLA-A0301", "value": "5 to 15", "unit": "µM"},
      {"measurement": "inhibition at 5 µM", "setting": "HLA-A0301; [3]", "value": 28.9, "unit": "%"},
      {"measurement": "inhibition at 15 µM", "setting": "HLA-A0301; [4]", "value": 53.7, "unit": "%"}
    ]},
    {"compound": "KLVSSGIRK [Peptide P85]", "values": [
      {"measurement": "5-μM inhibition (%)", "setting": "HLA-A0301; [3]", "value": 19.14, "unit": "%"},
      {"measurement": "15-μM inhibition (%)", "setting": "HLA-A0301; [4]", "value": 38.04, "unit": "%"}
    ]},
    {"compound": "LLYWGQELK [Peptide P84]", "values": [
      {"measurement": "IC50", "setting": "HLA-A0301", "value": "5 to 15", "unit": "µM"},
      {"measurement": "inhibition at 5 µM", "setting": "HLA-A0301; [3]", "value": 25.7, "unit": "%"},
      {"measurement": "inhibition at 15 µM", "setting": "HLA-A0301; [4]", "value": 56.2, "unit": "%"}
    ]},
    {"compound": "RLINCNTSV [Peptide P6]", "values": [
      {"measurement": "IC50", "setting": "HLA-A0203", "value": "5 to 15", "unit": "µM"},
      {"measurement": "inhibition at 5 µM", "setting": "HLA-A0203; A0203, peptide 5 μM vs FITC-labeled reference peptide 300 nM, 24 h, 4°C, flow cytometry, read-out: 5-μM inhibition (%)", "value": 15.8, "unit": "%"},
      {"measurement": "inhibition at 15 µM", "setting": "HLA-A0203; A0203, peptide 15 μM vs FITC-labeled reference peptide 300 nM, 24 h, 4°C, flow cytometry, read-out: 15-μM inhibition (%)", "value": 70.7, "unit": "%"},
      {"measurement": "inhibition at 5 µM", "setting": "HLA-A0201; [1]", "value": 0.13, "unit": "%"},
      {"measurement": "inhibition at 15 µM", "setting": "HLA-A0201; [2]", "value": 23.6, "unit": "%"},
      {"measurement": "inhibition at 5 µM", "setting": "HLA-A0206", "value": 14.6, "unit": "%"},
      {"measurement": "inhibition at 15 µM", "setting": "HLA-A0206", "value": 41.8, "unit": "%"}
    ]},
    {"compound": "VTDSQYALGI [Peptide P69]", "values": [
      {"measurement": "inhibition at 5 µM", "setting": "HLA-A0101; [5]", "value": 35.6, "unit": "%"},
      {"measurement": "inhibition at 15 µM", "setting": "HLA-A0101; [6]", "value": 71.2, "unit": "%"},
      {"measurement": "IC50", "setting": "HLA-A0101; read-out: Affinity", "value": "5 to 15", "unit": "µM"}
    ]},
    {"compound": "WIILGLNKI [Peptide P72]", "values": [
      {"measurement": "IC50", "setting": "HLA-A0206; class from inhibition at 5 and 15 μM of FITC-labeled reference peptide binding, read-out: Affinity", "value": "5 to 15", "unit": "µM"},
      {"measurement": "inhibition at 5 µM", "setting": "HLA-A0206", "value": 40.9, "unit": "%"},
      {"measurement": "inhibition at 15 µM", "setting": "HLA-A0206", "value": 67.3, "unit": "%"}
    ]},
    {"compound": "YSENSSEYY [Peptide P68]", "values": [
      {"measurement": "IC50", "setting": "HLA-A0101; A0101, class from inhibition at 5 and 15 μM of FITC-labeled reference peptide binding, read-out: Affinity", "value": "< 5", "unit": "µM"},
      {"measurement": "inhibition at 5 µM", "setting": "HLA-A0101; [5]", "value": 83.8, "unit": "%"},
      {"measurement": "inhibition at 15 µM", "setting": "HLA-A0101; [6]", "value": 94.2, "unit": "%"}
    ]}
  ]
}
